Laboratory results published in patent US8003682B2, “Indole compounds, a process for their preparation and pharmaceutical compositions containing them” (Les Laboratories Servier, priority 2006, dated 2011).

Columns and labels:
MT1 receptor = MT1 receptor (Homo sapiens, UniProt P48039); test: Melatonin MT1 receptor binding study (2-[125I]-iodomelatonin competition); conditions: 2-[125I]-iodomelatonin radioligand, triplicate
Procedure: (§1) The MT1 or MT2 receptor binding experiments are carried out using 2-[^125I]-iodomelatonin as reference radioligand. The radioactivity retained is determined using a liquid scintillation counter.
(§2) Competitive binding experiments are then carried out in triplicate using the various test compounds. A range of different concentrations is tested for each compound. The results enable the binding affinities (Ki) of the compounds tested to be determined.

MT2 receptor = target: T1, MT2 receptor (Homo sapiens, UniProt P49286); test: Melatonin MT2 receptor binding study (2-[125I]-iodomelatonin competition); conditions: 2-[125I]-iodomelatonin radioligand, triplicate
T1 sequence (P49286 1-362): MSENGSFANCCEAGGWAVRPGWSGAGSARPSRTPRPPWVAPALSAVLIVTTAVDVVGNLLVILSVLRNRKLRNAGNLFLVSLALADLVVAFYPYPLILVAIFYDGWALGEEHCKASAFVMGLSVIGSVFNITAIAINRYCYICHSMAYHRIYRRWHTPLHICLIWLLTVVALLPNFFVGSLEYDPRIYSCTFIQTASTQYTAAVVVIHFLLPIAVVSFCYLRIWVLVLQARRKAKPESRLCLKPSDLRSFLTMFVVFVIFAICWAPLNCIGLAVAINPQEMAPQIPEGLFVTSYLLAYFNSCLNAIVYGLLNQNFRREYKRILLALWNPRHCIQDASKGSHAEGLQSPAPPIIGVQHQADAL
Procedure: as §1, §2

Sequence of MT1 receptor (P48039 whole entry): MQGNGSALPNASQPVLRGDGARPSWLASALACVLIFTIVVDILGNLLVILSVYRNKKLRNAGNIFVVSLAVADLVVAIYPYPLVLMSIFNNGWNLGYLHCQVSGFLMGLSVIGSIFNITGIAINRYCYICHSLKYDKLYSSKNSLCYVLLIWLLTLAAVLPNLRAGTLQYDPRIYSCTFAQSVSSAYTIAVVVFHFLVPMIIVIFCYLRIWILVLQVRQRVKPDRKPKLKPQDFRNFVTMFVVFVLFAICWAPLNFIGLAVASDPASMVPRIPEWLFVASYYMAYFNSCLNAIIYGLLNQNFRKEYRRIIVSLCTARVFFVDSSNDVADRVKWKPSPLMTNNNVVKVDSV

Ki (MT1 receptor): 18 nM
Ki (MT2 receptor): 1 nM
SMILES: CNC(=O)c1cc2ccc(OC)cc2n1CCNC(C)=O [Example 1, 1-[2-(Acetylamino)ethyl]-6-methoxy-N-methyl-1H-indole-2-carboxamide]
